{"source": "patent US20250283052A1", "about": "“THERAPEUTIC NK CELL POPULATIONS” (Gamida Cell Ltd., priority 2021, published 2025)", "key": {"[1]": {"test_system": "CD62L", "assay": "CD62L staining 2 hours post-thaw (FACS)", "type": "cell-based", "details": "culturing in 7 mM NAM; 2 hours post-thaw (FIG. 2)", "procedure": "The cells were thawed, and 2 hours post-thaw were sampled for staining against CD62L and analyzed by FACS. Assays for adhesion and migration molecules such as CD62L, CXCR-4, CD49e and the like, important for homing/engraftment and retention of cells in transplantation, are well known in the art. CD62L expression in a cell can be assayed, for example, by flow cytometry, immunodetection, quantitative cDNA amplification, hybridization and the like. In one embodiment, CD62L expression is detected in different populations of NK cells by exposure of the cells to a fluorescent-tagged specific anti-human CD62L monoclonal antibody [e.g., CD62L PE, Cat. No. 304806 from BioLegend (San Diego, CA, USA)], and sorting of the cells by fluorescent activated cell sorting (FACS). After 2 weeks in culture according to the methods of the invention, a modified procedure using inactivated autologous CD3+ cells as feeder, supplemented with OKT3 and NAM, led to an improved fold expansion, which increased the total number of viable cells obtained at harvest. The functionality of the cells in killing and ADCC was assessed by combination of NK cells with target cells BL2 (Burkitt lymphoma cell line)—at different ratios. […]"}, "[2]": {"test_system": "CD200R", "assay": "CD200R immunophenotyping of expanded NK cells (FACS)", "type": "cell-based", "details": "2 weeks culture without NAM or with 2.5, 5 or 7 mM NAM (FIG. 3)", "procedure": "Cells were cultured for 2 weeks without NAM and with 2.5 mM, 5 mM NAM or 7 mM NAM. Samples for staining against CD200R were analyzed by FACS.\nThe immune checkpoint receptors, CD200R and Programmed Death receptor-1 (PD-1), are exploited by tumor cells which overexpress their ligands to suppress lymphocytes anti-tumor activity. The effect of expansion with nicotinamide (NAM) on expression of immune checkpoint receptors in NK cells was assessed."}}, "data": [{"smiles": "NC(=O)c1cccnc1", "note": "[NAM, nicotinamide]", "values": [{"measurement": "expression of CD62L", "setting": "[1]", "result": "increased expression of CD62L"}, {"measurement": "expression of CD200R on expanded NK cells", "setting": "[2]", "result": "down regulated"}]}]}
